# US8957108B2, “Use of 5,6-dimethylxanthenone-4-acetic acid as an antiviral agent” (University of Maryland, Baltimore, priority 2006, dated 2015)
# Assays:
# IRF-3 = experiment: Native-PAGE and Western blotting for IRF-3 dimers; format: cell-based, mouse; conditions: macrophages pretreated with SA
# Description: Rabbit anti-mouse IκBα phospho-specific Ab (pAb) was purchased from Santa Cruz Biotechnology, Inc. (Santa Cruz, Calif.). Rabbit anti-mouse MAPK pAb and rabbit anti-human phospho-IRF-3 pAb antibodies were purchased from Cell Signaling (Danvers, Mass.). Rabbit anti-mouse IRF-3 pAb was purchased from Zymed (South San Francisco, Calif.). Native-PAGE for the detection of IRF-3 dimers was carried out as described in Iwamura, T. et al. (2001) “Induction Of IRF-3/-7 Kinase And NF-kappaB in Response To Double-Stranded RNA And Virus Infection: Common And Unique Pathways,” Genes and Cells 6:375-388. Briefly, thioglycollate-elicited peritoneal macrophages were lysed following stimulation with either LPS or DMXAA as indicated. […] Membranes were probed with a 1:250 dilution of rabbit anti-mouse IRF-3 for 1 h at room temperature. Goat anti-rabbit IgG-HRP (Cell Signaling Technologies, Danvers, Mass.) at a 1:2000 dilution was used as the secondary Ab. Blots were developed with ECL Plus (Amersham Biosciences, Piscataway, N.J.).
# peritoneal macrophages = experiment: Quantitative real-time PCR of cytokine mRNA in murine peritoneal macrophages
# MEFs = experiment: RANTES protein in MEF supernatants; format: cell-based, mouse; conditions: MAVS+/+ and MAVS−/− MEFs, 24 h
# Description: IFN-β protein in cell culture supernatants was measured using a custom ELISA originally described in Weinstein, S. L. et al. (2000) “Phosphatidylinositol 3-Kinase And mTOR Mediate Lipopolysaccharide-Stimulated Nitric Oxide Production In Macrophages Via Interferon-Beta,” J. Leukocyte Biol. 67:405-414, with few modifications. […] Plates were blocked with 10% FCS in 1×PBS for 2 h at room temperature. Samples and a murine IFN-β standard (NIH, Bethesda, Md.) were added to wells and incubated overnight at 4° C. […] Wells were washed 3× followed by incubation with a 1:2000 dilution of goat anti-rabbit HRP (Cell Signaling Technologies, Beverly, Mass.) in 10% FCS-PBS for 1 h at room temperature. Plates were washed 3× and developed with TMB substrate (KPL, Gaithersburg, Md.). The reaction was stopped by addition of 1N H2SO4, and plates were read at 450 nm. RANTES and TNF-α were quantified using Luminex bead-based colorimetric assays. […] For stimulation of cells, poly(I:C) was mixed with Fugene 6 transfection reagent (Roche) at a ratio of 1:1 (volume:weight) in OptiMEM medium and incubated for 15 min prior to stimulation. Culture supernatants of cells (2×10^4) seeded on 96-well plates were collected after 24 h stimulation and analyzed for RANTES levels with ELISA. ELISA was performed according to the manufacturer's instructions (R&D Systems).
# [1] = peritoneal macrophages pretreated with SA
Compound,IRF-3 dimer formation and phosphorylation of serine 396 in response to DMXAA (IRF-3),effect on DMXAA-induced IFN-β expression (peritoneal macrophages; [1]),effect on LPS-induced IFN-β mRNA expression (peritoneal macrophages; [1]),RANTES response in MAVS-deficient MEFs (MEFs),"TNF-α mRNA in the absence of TLR4 (peritoneal macrophages; TLR4−/− peritoneal macrophages, 2 h)"
"O=C(O)c1ccccc1O [SA, salicylic acid, reference compound]",inhibits,dramatically reduces,essentially unaffected,,
poly I:C [reference compound],,,,completely abrogates,induces TNF-α to wild-type levels
